Measured values: patent US7118895B2, “Process for producing aglycon by using diglycosidase and flavor-improved food containing the aglycon and converting agent to be used in the process” (Amano Enzyme Inc., priority 2000, dated 2006)
One block for each compound: values may come before it.

System: Crude diglycosidase
Test: Examination of substrate concentration in the conversion into isoflavone aglycons by diglycosidase using soybean materials;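 note: percent of the isoflavone family total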
Format: biochemical, Penicillium multicolor IAM7153
Method: Into 20 mM acetate buffer of pH 4.0 was suspended 0.1 g, 0.25 g, 0.5 g, 1.0 g, or 1.5 g of each of various soybean materials (roasted soy flour (manufactured by Fuji Shokuryo K.K.), soymilk (manufactured by Gitoh Shokuhin K.K.), defatted soybean (manufactured by Fuji Seiyu K.K.), concentrated soybean protein (manufactured by Fuji Seiyu K.K.)). The pH of the suspension was measured and the liquid volume was adjusted to 4.5 mL while the pH was adjusted to 4.0 with 1N hydrochloric acid. An enzyme solution wherein diglycosidase activity of crude diglycosidase was adjusted to 1.88 AU/mL was added thereto in an amount of 0.5 mL, whereby the final liquid volume was 5.0 mL. Namely, the ratio of the soybean material in the reaction mixture was 2%, 5%, 10%, 20%, or 30% (w/v). The whole was reacted at 55° C. under shaking. To 5 mL of the reaction mixture was added 7 mL of ethanol after 0, 1, 3, and 6 hours of the reaction. After ultrasonication, the mixture was thoroughly mixed. It was subjected to centrifugal separation at 2,000 rpm and room temperature for 5 minutes. Then, […] of the supernatant was placed in a 1.5 mL microtube and was subjected to centrifugal separation at 15,000 rpm and 4° C. for 10 minutes. The supernatant was filtered through a filter and each sample was suitably diluted by a factor of 1 to 6 depending on the substrate concentration. Fifty μL of the diluted solution was analyzed by HLPC (Tables 27 to 38).

[1] = soymilk, substrate concentration 2%, heat treatment of enzyme no, reaction time 0 h
[2] = soymilk, substrate concentration 2%, heat treatment of enzyme no, reaction time 1 h
[3] = soymilk, substrate concentration 2%, heat treatment of enzyme no, reaction time 3 h
[4] = soymilk, substrate concentration 2%, heat treatment of enzyme no, reaction time 6 h
[5] = soymilk, substrate concentration 2%, heat treatment of enzyme yes, reaction time 6 h
[6] = soymilk, substrate concentration 5%, heat treatment of enzyme no, reaction time 0 h
[7] = soymilk, substrate concentration 5%, heat treatment of enzyme no, reaction time 1 h
[8] = soymilk, substrate concentration 5%, heat treatment of enzyme no, reaction time 3 h
[9] = soymilk, substrate concentration 5%, heat treatment of enzyme no, reaction time 6 h
[10] = soymilk, substrate concentration 5%, heat treatment of enzyme yes, reaction time 6 h
[11] = soymilk, substrate concentration 10%, heat treatment of enzyme no, reaction time 0 h
[12] = soymilk, substrate concentration 10%, heat treatment of enzyme no, reaction time 1 h
[13] = soymilk, substrate concentration 10%, heat treatment of enzyme no, reaction time 3 h
[14] = soymilk, substrate concentration 10%, heat treatment of enzyme no, reaction time 6 h
[15] = soymilk, substrate concentration 10%, heat treatment of enzyme yes, reaction time 6 h
[16] = soymilk, substrate concentration 20%, heat treatment of enzyme no, reaction time 0 h
[17] = soymilk, substrate concentration 20%, heat treatment of enzyme no, reaction time 1 h
[18] = soymilk, substrate concentration 20%, heat treatment of enzyme no, reaction time 3 h
[19] = soymilk, substrate concentration 20%, heat treatment of enzyme no, reaction time 6 h
[20] = soymilk, substrate concentration 20%, heat treatment of enzyme yes, reaction time 6 h
[21] = soymilk, substrate concentration 30%, heat treatment of enzyme no, reaction time 0 h
[22] = soymilk, substrate concentration 30%, heat treatment of enzyme no, reaction time 1 h
[23] = soymilk, substrate concentration 30%, heat treatment of enzyme no, reaction time 3 h
[24] = soymilk, substrate concentration 30%, heat treatment of enzyme no, reaction time 6 h
[25] = soymilk, substrate concentration 30%, heat treatment of enzyme yes, reaction time 6 h

SMILES: CC(=O)OC[C@H]1O[C@@H](Oc2ccc3c(=O)c(-c4ccc(O)cc4)coc3c2)[C@H](O)[C@@H](O)[C@@H]1O [acetly-daidzin]
Decomposition efficiency: ratio of each glycoside/aglycon within its isoflavone family (concentrated soybean protein, substrate concentration 2%, heat treatment of enzyme no, reaction time 0 h): 44.0%
Decomposition efficiency: ratio of each glycoside/aglycon within its isoflavone family (concentrated soybean protein, substrate concentration 2%, heat treatment of enzyme no, reaction time 1 h): 17.8%
Decomposition efficiency: ratio of each glycoside/aglycon within its isoflavone family (concentrated soybean protein, substrate concentration 2%, heat treatment of enzyme no, reaction time 3 h): 5.3%
Decomposition efficiency: ratio of each glycoside/aglycon within its isoflavone family (concentrated soybean protein, substrate concentration 2%, heat treatment of enzyme no, reaction time 6 h): not detected
Decomposition efficiency: ratio of each glycoside/aglycon within its isoflavone family (concentrated soybean protein, substrate concentration 2%, heat treatment of enzyme yes, reaction time 6 h): 43.2%
Decomposition efficiency: ratio of each glycoside/aglycon within its isoflavone family (concentrated soybean protein, substrate concentration 5%, heat treatment of enzyme no, reaction time 0 h): 44.0%
Decomposition efficiency: ratio of each glycoside/aglycon within its isoflavone family (concentrated soybean protein, substrate concentration 5%, heat treatment of enzyme no, reaction time 3 h): 20.5%
Decomposition efficiency: ratio of each glycoside/aglycon within its isoflavone family (concentrated soybean protein, substrate concentration 5%, heat treatment of enzyme no, reaction time 6 h): 12.0%
Decomposition efficiency: ratio of each glycoside/aglycon within its isoflavone family (concentrated soybean protein, substrate concentration 5%, heat treatment of enzyme yes, reaction time 6 h): 43.0%
Decomposition efficiency: ratio of each glycoside/aglycon within its isoflavone family (concentrated soybean protein, substrate concentration 10%, heat treatment of enzyme no, reaction time 0 h): 44.2%
Decomposition efficiency: ratio of each glycoside/aglycon within its isoflavone family (concentrated soybean protein, substrate concentration 10%, heat treatment of enzyme no, reaction time 1 h): 39.7%
Decomposition efficiency: ratio of each glycoside/aglycon within its isoflavone family (concentrated soybean protein, substrate concentration 10%, heat treatment of enzyme no, reaction time 3 h): 32.9%
Decomposition efficiency: ratio of each glycoside/aglycon within its isoflavone family (concentrated soybean protein, substrate concentration 10%, heat treatment of enzyme no, reaction time 6 h): 26.9%
Decomposition efficiency: ratio of each glycoside/aglycon within its isoflavone family (concentrated soybean protein, substrate concentration 10%, heat treatment of enzyme yes, reaction time 6 h): 43.4%
Decomposition efficiency: ratio of each glycoside/aglycon within its isoflavone family (concentrated soybean protein, substrate concentration 20%, heat treatment of enzyme no, reaction time 0 h): 44.1%
Decomposition efficiency: ratio of each glycoside/aglycon within its isoflavone family (concentrated soybean protein, substrate concentration 20%, heat treatment of enzyme no, reaction time 3 h): 41.5%
Decomposition efficiency: ratio of each glycoside/aglycon within its isoflavone family (concentrated soybean protein, substrate concentration 20%, heat treatment of enzyme no, reaction time 6 h): 37.9%
Decomposition efficiency: ratio of each glycoside/aglycon within its isoflavone family (concentrated soybean protein, substrate concentration 20%, heat treatment of enzyme yes, reaction time 6 h): 44.0%
Decomposition efficiency: ratio of each glycoside/aglycon within its isoflavone family (concentrated soybean protein, substrate concentration 30%, heat treatment of enzyme no, reaction time 0 h): 49.2%
Decomposition efficiency: ratio of each glycoside/aglycon within its isoflavone family (concentrated soybean protein, substrate concentration 30%, heat treatment of enzyme no, reaction time 1 h): 56.6%
Decomposition efficiency: ratio of each glycoside/aglycon within its isoflavone family (concentrated soybean protein, substrate concentration 30%, heat treatment of enzyme no, reaction time 3 h): 49.9%
Decomposition efficiency: ratio of each glycoside/aglycon within its isoflavone family (concentrated soybean protein, substrate concentration 30%, heat treatment of enzyme no, reaction time 6 h): 42.8%
Decomposition efficiency: ratio of each glycoside/aglycon within its isoflavone family (concentrated soybean protein, substrate concentration 30%, heat treatment of enzyme yes, reaction time 6 h): 48.4%

SMILES: CC(=O)OC[C@H]1O[C@@H](Oc2ccc3c(=O)c(-c4ccc(O)cc4)coc3c2)[C@H](O)[C@@H](O)[C@@H]1O [acetyl-daidzin]
Decomposition efficiency: ratio of each glycoside/aglycon within its isoflavone family [1]: not detected
Decomposition efficiency: ratio of each glycoside/aglycon within its isoflavone family [2]: not detected
Decomposition efficiency: ratio of each glycoside/aglycon within its isoflavone family [3]: not detected
Decomposition efficiency: ratio of each glycoside/aglycon within its isoflavone family [4]: not detected
Decomposition efficiency: ratio of each glycoside/aglycon within its isoflavone family [5]: not detected
Decomposition efficiency: ratio of each glycoside/aglycon within its isoflavone family [6]: not detected
Decomposition efficiency: ratio of each glycoside/aglycon within its isoflavone family [7]: not detected
Decomposition efficiency: ratio of each glycoside/aglycon within its isoflavone family [8]: not detected
Decomposition efficiency: ratio of each glycoside/aglycon within its isoflavone family [9]: not detected
Decomposition efficiency: ratio of each glycoside/aglycon within its isoflavone family [10]: not detected
Decomposition efficiency: ratio of each glycoside/aglycon within its isoflavone family [11]: not detected
Decomposition efficiency: ratio of each glycoside/aglycon within its isoflavone family [12]: not detected
Decomposition efficiency: ratio of each glycoside/aglycon within its isoflavone family [13]: not detected
Decomposition efficiency: ratio of each glycoside/aglycon within its isoflavone family [14]: not detected
Decomposition efficiency: ratio of each glycoside/aglycon within its isoflavone family [15]: not detected
Decomposition efficiency: ratio of each glycoside/aglycon within its isoflavone family [16]: not detected
Decomposition efficiency: ratio of each glycoside/aglycon within its isoflavone family [17]: not detected
Decomposition efficiency: ratio of each glycoside/aglycon within its isoflavone family [18]: not detected
Decomposition efficiency: ratio of each glycoside/aglycon within its isoflavone family [19]: not detected
Decomposition efficiency: ratio of each glycoside/aglycon within its isoflavone family [20]: not detected
Decomposition efficiency: ratio of each glycoside/aglycon within its isoflavone family [21]: not detected
Decomposition efficiency: ratio of each glycoside/aglycon within its isoflavone family [22]: not detected
Decomposition efficiency: ratio of each glycoside/aglycon within its isoflavone family [23]: not detected
Decomposition efficiency: ratio of each glycoside/aglycon within its isoflavone family [24]: not detected
Decomposition efficiency: ratio of each glycoside/aglycon within its isoflavone family [25]: not detected

Decomposition efficiency: ratio of each glycoside/aglycon within its isoflavone family [1]: not detected
Decomposition efficiency: ratio of each glycoside/aglycon within its isoflavone family [2]: not detected
Decomposition efficiency: ratio of each glycoside/aglycon within its isoflavone family [3]: not detected
Decomposition efficiency: ratio of each glycoside/aglycon within its isoflavone family [4]: not detected
Decomposition efficiency: ratio of each glycoside/aglycon within its isoflavone family [5]: not detected
Decomposition efficiency: ratio of each glycoside/aglycon within its isoflavone family [6]: not detected
Decomposition efficiency: ratio of each glycoside/aglycon within its isoflavone family [7]: not detected
Decomposition efficiency: ratio of each glycoside/aglycon within its isoflavone family [8]: not detected
Decomposition efficiency: ratio of each glycoside/aglycon within its isoflavone family [9]: not detected
Decomposition efficiency: ratio of each glycoside/aglycon within its isoflavone family [10]: not detected
Decomposition efficiency: ratio of each glycoside/aglycon within its isoflavone family [11]: 0.5%
Decomposition efficiency: ratio of each glycoside/aglycon within its isoflavone family [12]: not detected
Decomposition efficiency: ratio of each glycoside/aglycon within its isoflavone family [13]: not detected
Decomposition efficiency: ratio of each glycoside/aglycon within its isoflavone family [14]: not detected
Decomposition efficiency: ratio of each glycoside/aglycon within its isoflavone family [15]: 0.5%
Decomposition efficiency: ratio of each glycoside/aglycon within its isoflavone family [16]: 0.6%
Decomposition efficiency: ratio of each glycoside/aglycon within its isoflavone family [17]: not detected
Decomposition efficiency: ratio of each glycoside/aglycon within its isoflavone family [18]: not detected
Decomposition efficiency: ratio of each glycoside/aglycon within its isoflavone family [19]: not detected
Decomposition efficiency: ratio of each glycoside/aglycon within its isoflavone family [20]: 0.6%
Decomposition efficiency: ratio of each glycoside/aglycon within its isoflavone family [21]: 0.6%
Decomposition efficiency: ratio of each glycoside/aglycon within its isoflavone family [22]: not detected
Decomposition efficiency: ratio of each glycoside/aglycon within its isoflavone family [23]: not detected
Decomposition efficiency: ratio of each glycoside/aglycon within its isoflavone family [24]: not detected
Decomposition efficiency: ratio of each glycoside/aglycon within its isoflavone family [25]: 0.6%
SMILES: CC(=O)OC[C@H]1O[C@@H](Oc2cc(O)c3c(=O)c(-c4ccc(O)cc4)coc3c2)[C@H](O)[C@@H](O)[C@@H]1O [acetyl-genistin]
